# Results published in paper PMC8781960, “Structural Basis of 2-Phenylamino-4-phenoxyquinoline Derivatives as Potent HIV-1 Non-Nucleoside Reverse Transcriptase Inhibitors” (Molecules, 2022).
# Marks after values point to notes of the source that are not given here.
# Legend:
# [1] = test system: H69AR (lung cancer, multidrug resistant); assay: In vitro cytotoxicity (MTT); type: cell-based, human; conditions: human, 48 h, 50 µg/mL
# [2] = test system: MDA-MB-231 (hormone-independent breast cancer); assay: In vitro cytotoxicity (MTT); conditions: for IC50: Homo sapiens, MDA-MB-231, 48 h, read-out: IC50 MDA-MB-231; for %C percentage cytotoxicity MDA-MB-231: at 50 µg/mL, inactive (IC50 ≥ 50 µg/mL)
# Protocol: (§1) Background control wells contained the same volume as the complete culture medium. […] Samples at various concentrations were added to the microplate and incubated for another 48 h. Cell viability was determined by 3(4,5-dimethylthiazol-2-yl)-2-5-diphenyl tetrazolium bromide (MTT) assay (Sig-ma-Aldrich). The reagent was dissolved in phosphate-buffered saline at 5 mg/mL and filtered to sterilize and remove the small amount of insoluble residue present in some batches of MTT. […] Subsequently, dimethyl sulfoxide (100 µL; Merck, Germany) was added to dissolve the resulting formazan by sonication. The plates were read on a microplate reader (Molecular Devices, CA, USA) using a test wavelength of 550 nm and a reference wavelength of 650 nm. XTT assay for suspension cells was used for MOLT-3 cells.
# HepG2 (hepatocarcinoma) = assay: In vitro cytotoxicity (MTT); conditions: for IC50: Homo sapiens, HepG2, 48 h, read-out: IC50 HepG2; for %C percentage cytotoxicity HepG2: at 50 µg/mL, inactive (IC50 ≥ 50 µg/mL)
# Protocol: as §1
# [3] = test system: HuCCA-1 (cholangiocarcinoma); assay: In vitro cytotoxicity (MTT); conditions: for IC50: Homo sapiens, HuCC-A1, 48 h, read-out: IC50 HuCCA-1; for %C percentage cytotoxicity HuCCA-1: at 50 µg/mL, inactive (IC50 ≥ 50 µg/mL)
# Protocol: as §1
# S102 (Thai liver cancer) = assay: In vitro cytotoxicity (MTT); conditions: at 50 µg/mL; inactive (IC50 ≥ 50 µg/mL)
# Protocol: as §1
# HL-60 (promyeloblast) = assay: In vitro cytotoxicity (MTT); conditions: for IC50: Homo sapiens, HL-60, 48 h, read-out: IC50 HL-60; for %C percentage cytotoxicity HL-60: at 50 µg/mL, inactive (IC50 ≥ 50 µg/mL)
# Protocol: as §1
# [4] = test system: T47-D (hormone-dependent breast cancer); assay: In vitro cytotoxicity (MTT); conditions: for IC50: Homo sapiens, T47D, 48 h, read-out: IC50 T47-D; for %C percentage cytotoxicity T47-D: at 50 µg/mL, inactive (IC50 ≥ 50 µg/mL)
# Protocol: as §1
# A549 (lung carcinoma) = assay: In vitro cytotoxicity (MTT); conditions: for IC50: Homo sapiens, A549, 48 h, read-out: IC50 A549; for %C percentage cytotoxicity A549: at 50 µg/mL, inactive (IC50 ≥ 50 µg/mL)
# Protocol: as §1
# [5] = test system: HeLA (cervical carcinoma); assay: In vitro cytotoxicity (MTT); conditions: for IC50: Homo sapiens, HeLa, 48 h, read-out: IC50 HeLA; for %C percentage cytotoxicity HeLA: at 50 µg/mL, inactive (IC50 ≥ 50 µg/mL)
# Protocol: as §1
# HIV-1 RT [6] = target: T1, HIV-1 RT (Human immunodeficiency virus type 1 group M subtype B, UniProt P03366); parameters: method as in PMID 31698495; conditions: 1 µM; previously reported values for 5a–5d; cited from earlier work
# T1 construct: The reaction mixture consisted of template/primer complex, 2′-deoxy-nucleotide-5′-triphosphates (dNTPs), and RT enzyme in lysis buffer; purchased Roche Applied Science, Mannheim, Germany
# [7] = test system: MRC-5 (normal embryonic lung cell); assay: In vitro cytotoxicity (MTT), normal cell line; conditions: for IC50: Homo sapiens, MRC5, 48 h, read-out: IC50 MRC-5; for %C percentage cytotoxicity MRC-5: normal cell line, at 50 µg/mL, inactive (IC50 ≥ 50 µg/mL)
# Protocol: as §1
# [8] = test system: MOLT-3 (acute lymphoblastic leukemia); assay: In vitro cytotoxicity (XTT); conditions: for IC50: Homo sapiens, MOLT-3, 48 h, read-out: IC50 MOLT-3; for %C percentage cytotoxicity MOLT-3: at 50 µg/mL, inactive (IC50 ≥ 50 µg/mL)
# Protocol: as §1
# HIV-1 RT [9] = target: T1, HIV-1 RT; assay: HIV-1 RT inhibition assay (Roche RT kit, colorimetric ELISA); type: biochemical; conditions: for inhibition at 1 µM: read-out: Inhibitory activities (%) against HIV-1 RT
# Description: The inhibition assay of HIV-1 RT was accomplished using the template/primer hybrid poly(A) × oligo(dT)15, digoxigenin (DIG)- and biotin-labeled nucleotides, an antibody to DIG that was conjugated to peroxidase (anti-DIG-POD), and the peroxidase substrate ABTS. The quantities of DIG- and biotin-labeled dUTP incorporated into DNA represent t HIV-1 RT activity. The HIV-RT inhibition assay was implemented using an RT assay kit (Roche Applied Science, Mannheim, Germany), and the procedures for assaying RT inhibition were performed as described in the kit protocol. […] The reaction mixture consisted of template/primer complex, 2′-deoxy-nucleotide-5′-triphosphates (dNTPs), and RT enzyme in lysis buffer with or without an inhibitor. […] The biotin-labeled dNTPs that were incorporated in the template bound to streptavidin because of the presence of RT. Unbound dNTPs were washed using a wash buffer, and anti-DIG-POD was added to the MTP. The DIG-labeled dNTPs incorporated in the template bound to the anti-DIG-POD antibody. Unbound anti-DIG-POD was also washed elaborately five times using a wash buffer. Finally, the peroxide substrate (ABST) was added to the MTP. A colored reaction product emerged during the cleavage of the substrate catalyzed by […]. The absorbance of the sample was measured at the optical density (OD) at 490 nm using the MTP (enzyme-linked immunosorbent assay [ELISA]) reader. The percentage inhibitory activities of the RT inhibitors were calculated by comparing with that of the sample without an inhibitor. The resulting color intensity was directly proportional to the RT activity. Percentage inhibitory values were calculated using the following formula: Inhibition (%) = [1–(OD value with RT and inhibitor−OD value without RT and inhibitors)/(OD value without inhibitors with RT−OD value without RT and inhibitors)] × 100.
Structure (SMILES),melting point,%C percentage cytotoxicity H69AR [1],IC50 [2],IC50 (HepG2 (hepatocarcinoma)),IC50 [3],%C percentage cytotoxicity S102 (S102 (Thai liver cancer)),IC50 (HL-60 (promyeloblast)),IC50 (A549 (lung carcinoma)),IC50 [5],IC50 [8],%C percentage cytotoxicity MDA-MB-231 [2],%C percentage cytotoxicity HepG2 (HepG2 (hepatocarcinoma)),%C percentage cytotoxicity HuCCA-1 [3],%C percentage cytotoxicity HL-60 (HL-60 (promyeloblast)),%C percentage cytotoxicity T47-D [4],%C percentage cytotoxicity A549 (A549 (lung carcinoma)),%C percentage cytotoxicity HeLA [5],%C percentage cytotoxicity MRC-5 [7],%C percentage cytotoxicity MOLT-3 [8],inhibition at 1 µM (HIV-1 RT [9]),also measured
"N#Cc1ccc(Nc2cc(Oc3ccc(C=O)cc3)c3ccccc3n2)cc1 [Compound 5a, 4-(4′-formylphenoxy)-2-(4″-cyanophenyl)-aminoquinoline]",267.1 to 268 °C,%C = 38.0 ^c,77.7 ± 5.9 µM,73.2 ± 7.7 µM,29.7 ± 2 µM,%C = 20.9 ^c,16.6 ± 4.7 µM,122 ± 4.5 µM,12.6 ± 1.3 µM,15.6 ± 3.6 µM,,,,,,,,,,,IC50 [4]: 43 ± 5.3 µM; Inhibitory activities (%) against HIV-1 RT (HIV-1 RT [6]): 19.4 ± 1.7%; IC50 [7]: 108 ± 4.7 µM
"N#Cc1ccc(Nc2cc(Oc3ccc(C#N)cc3)c3ccccc3n2)cc1 [Compound 5c, 4-(4′-cyanophenoxy)-2-(4″-cyanophenyl)-aminoquinoline]",,%C = 26.0 ^c,,,,%C = 0.0 ^c,,,,,%C = 38.4 ^c,%C = 44.8 ^c,%C = 23.0 ^c,%C = 2.0 ^c,%C = 45.0 ^c,%C = 26.0 ^c,%C = 25.0 ^c,%C = 12.0 ^c,%C = 6.0 ^c,,Inhibitory activities (%) against HIV-1 RT (HIV-1 RT [6]): 39.7 ± 3.0%
"Cc1cc(C#N)cc(C)c1Oc1cc(Nc2ccc(C#N)cn2)nc2ccccc12 [Compound 6d, 4-(2′,6′-Dimethyl-4′-cyanophenoxy)-2-(5’’-cyanopyridin-2’’ylamino)quinoline]",229.4 to 230.3 °C,%C = 0.0 ^c,,,,%C = 0.0 ^c,,,,,%C = 8.3 ^c,%C = 0.0 ^c,%C = 0.0 ^c,%C = 13.0 ^c,%C = 1.0 ^c,%C = 8.0 ^c,%C = 0.0 ^c,%C = 0.0 ^c,%C = 27.0 ^c,45.1 ± 1.5%,"cytotoxicity toward normal embryonic lung (MRC-5) cells, in words [7]: no cytotoxicity; IC50 (HIV-1 RT [9]): 1.22 µM"
"O=Cc1ccc(Oc2cc(-c3cc(Oc4ccc(C=O)cc4)c4ccccc4n3)nc3ccccc23)cc1 [Compound 7a, 4,4′-di-(4′-formylphenoxy)-2,2′-biquinoline]",288.7 to 289.3 °C,%C = 20.0 ^c,74.1 ± 5.3 µM,69.8 ± 11.8 µM,88.2 ± 4.4 µM,%C = 17.6 ^c,,69.5 ± 3.3 µM,88 ± 4.3 µM,74.2 ± 6.3 µM,,,,%C = 25.0 ^c,,,,%C = 33.9 ^c,,22.9 ± 1.2%,IC50 [4]: 96.1 ± 3.3 µM
"N#Cc1ccc(Nc2cc(Oc3ccc(C=O)cc3)nc3ccccc23)cc1 [Compound 8a, 2-(4′-formylphenoxy)-4-(4″-cyanophenyl)-aminoquinoline]",238.5 to 238.9 °C,%C = 8.4 ^c,118 ± 5.8 µM,85.3 ± 3.5 µM,22.7 ± 1.9 µM,%C = 2.9 ^c,107 ± 1.4 µM,111 ± 5.6 µM,112 ± 3.1 µM,21.5 ± 3.3 µM,,,,,%C = 0.0 ^c,,,,,29.6 ± 2.7%,IC50 [7]: 119 ± 5.7 µM
"Cc1cc(C=O)cc(C)c1Oc1cc(Nc2ccc(C#N)cc2)c2ccccc2n1 [Compound 8b, 2-(2′,6′-Dimethyl-4′-formylphenoxy)-4-(4″-cyanophenyl)-aminoquinoline]",200 to 201.3 °C,%C = 6.0 ^c,107 ± 3.2 µM,106 ± 9.7 µM,,%C = 0.0 ^c,34.9 ± 5.1 µM,,42.3 ± 2.7 µM,22.3 ± 1.9 µM,,,%C = 43.0 ^c,,%C = 38.0 ^c,%C = 37.0 ^c,,%C = 9.7 ^c,,39.6 ± 1.5%,
"N#Cc1ccc(Nc2cc(Oc3ccc(C#N)cc3)nc3ccccc23)cc1 [Compound 8c, 2-(4′-cyanophenoxy)-4-(4″-cyanophenyl)-aminoquinoline]",187.5 to 188 °C,%C = 21.0 ^c,,,,%C = 0.0 ^c,,,,,%C = 0.0 ^c,%C = 40.3 ^c,%C = 25.8 ^c,%C = 1.0 ^c,%C = 35.0 ^c,%C = 29.0 ^c,%C = 0.0 ^c,%C = 17.2 ^c,%C = 2.1 ^c,28.1 ± 3%,
"Cc1cc(C#N)cc(C)c1Oc1cc(Nc2ccc(C#N)cc2)c2ccccc2n1 [Compound 8d, 2-(2′,6′-Dimethyl-4′-cyanophenoxy)-4-(4″-cyanophenyl)-aminoquinoline]",201.3 to 202 °C,%C = 0.0 ^c,,,,%C = 0.0 ^c,56.6 ± 4.7 µM,,104 ± 4.7 µM,67.4 ± 3.1 µM,%C = 32.4 ^c,%C = 32.0 ^c,%C = 18.4 ^c,,%C = 31.0 ^c,%C = 29.1 ^c,,%C = 15.5 ^c,,34.5 ± 2.3%,
"Cc1cc(C=CC#N)cc(C)c1Oc1cc(Nc2ccc(C#N)cc2)c2ccccc2n1 [Compound 11b, 2-(4′-(2″-(E, Z)-cyanovinyl)-2′,6′-dimethyl-phenoxy)-4-(4″-cyanophenyl)-aminoquinoline]",180.7 to 182.3 °C,%C = 3.0 ^c,,,,%C = 0.0 ^c,,,,,%C = 14.1 ^c,%C = 3.7 ^c,%C = 0.0 ^c,%C = 0.0 ^c,%C = 4.0 ^c,%C = 0.0 ^c,%C = 2.0 ^c,%C = 0.0 ^c,%C = 19.0 ^c,34.3 ± 2.6%,
